Patent US20070172470A1, “Phosphatase regulation of nucleic acid transcription” (The Regents of the University of California, priority 2003, published 2007)
Where two headings read alike, the source gives them in different places.

Biological target: SCP1 (Homo sapiens, UniProt Q9GZU7)
Assay: PNθP phosphatase assay in the presence of phosphatase inhibitors
Assay type: biochemical

SCP1, sequence (Q9GZU7 other isoform, or with tags, fused parts or gaps): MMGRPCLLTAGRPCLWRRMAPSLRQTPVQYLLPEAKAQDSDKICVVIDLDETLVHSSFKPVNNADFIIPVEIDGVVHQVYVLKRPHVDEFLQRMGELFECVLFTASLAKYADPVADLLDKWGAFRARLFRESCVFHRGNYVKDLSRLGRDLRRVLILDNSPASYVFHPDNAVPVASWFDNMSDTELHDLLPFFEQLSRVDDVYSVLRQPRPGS

| Compound | SCP1 phosphatase activity in the presence of phosphatase inhibitor (GST-SCP1 214 (40 pmol), 20 mM PNθP, 1-10 μM inhibitor) | SCP1 phosphatase activity in the presence of phosphatase inhibitor |
| --- | --- | --- |
| C=C1[C@@H](O)[C@@H]2O[C@]3(CC[C@H](/C=C/[C@@H](C)[C@@H]4CC(C)=C[C@@]5(O[C@H](C[C@@](C)(O)C(=O)O)CC[C@H]5O)O4)O3)CC[C@H]2O[C@@H]1[C@@H](O)C[C@H](C)[C@H]1O[C@@]2(CCCCO2)CC[C@H]1C [okadaic acid] | resistant | – |
| microcystin | – | resistant |
